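Assay format: 96-well plates, 48-hour exposure. At the GI50, growth is halved.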 Activity calls are given as the source filed them. No stated cut-off is given here; in the data, active = GI50 up to about 1.1 µM and inactive = higher. Where a SMILES comes first, the peptide text is derived from it. The star is where a group is joined. Cbz = O=C(OCc1ccccc1)*
Tests used:
Experiment in all cases: inhibition of tumour cell growth, NCI panel, 48 h
[1] = test system: NCI-H23
[2] = test system: OVCAR-3
[3] = test system: OVCAR-5
[4] = test system: K562
[5] = test system: NCI/ADR-RES
[6] = test system: COLO 205
[7] = test system: HL-60
[8] = test system: SF-268
[9] = test system: SK-OV-3
[10] = test system: HT-29
[11] = test system: LOX IMVI
[12] = test system: SK-MEL-28
[13] = test system: DU-145
[14] = test system: HOP-92
[15] = test system: Hs-578T
[16] = test system: SK-MEL-5
[17] = test system: UACC-257
[18] = test system: M14
[19] = test system: PC-3
[20] = test system: IGROV-1

Measured: GI50

COc1ccc(NC(=O)c2cc(NC(=O)/C=C/c3ccccc3)c(OC)c(OC)c2)cc1
inactive: [1] > 100 µM | [2] 60.1 µM | [3] 40.7 µM | [4] 13.4 µM | [5] 28.5 µM | [6] 22.5 µM | [7] 6.19 µM | [8] 56.8 µM | [9] 51.5 µM | [10] 8.41 µM | [11] 4.73 µM | [12] 20.4 µM | [13] 16.3 µM | [14] 16.8 µM | [15] 43.5 µM | [16] 5.82 µM | [17] 44.1 µM | [18] > 100 µM | [19] 6.41 µM

CNC(=O)c1ccccc1[S+]1c2cccc3cccc(c23)C(=O)N1C (stereo not drawn)
inactive: [1] > 100 µM | [2] > 100 µM | [3] > 100 µM | [4] > 100 µM | [5] > 100 µM | [6] > 100 µM | [7] > 100 µM | [8] > 100 µM | [10] > 100 µM | [20] > 100 µM | [11] > 100 µM | [12] > 100 µM | [13] > 100 µM | [14] > 100 µM | [15] > 100 µM | [16] > 100 µM | [17] > 100 µM | [18] > 100 µM | [19] > 100 µM

O=c1nc2n(CCO)c(-c3ccccc3)c(-c3ccccc3)nc-2c(=O)[nH]1
inactive: [1] > 100 µM | [2] > 100 µM | [3] > 100 µM | [4] > 100 µM | [5] > 100 µM | [6] > 100 µM | [8] > 100 µM | [9] > 100 µM | [10] > 100 µM | [20] > 100 µM | [11] > 100 µM | [12] > 100 µM | [13] > 100 µM | [14] 88.9 µM | [15] > 100 µM | [16] > 100 µM | [17] > 100 µM | [18] > 100 µM | [19] > 100 µM

NC(=O)c1c2c(n3ccccc13)C(=O)c1ccccc1C2=O
inactive: [1] 11.9 µM | [4] > 100 µM | [5] > 100 µM | [6] 39.6 µM | [7] > 100 µM | [8] > 100 µM | [9] > 100 µM | [10] 32.2 µM | [20] 42.7 µM | [11] > 100 µM | [12] > 100 µM | [13] > 100 µM | [14] 31 µM | [15] 96.6 µM | [16] 16.1 µM | [17] 32.1 µM | [18] 18.1 µM | [19] > 100 µM

CC(=O)OC1CC2C(C)(C)C(=O)C=CC2(C)C2CCC3(C)C(c4ccoc4)OC(=O)C4OC43C12C (stereo not drawn)
inactive: [1] 7.53 µM | [2] 21.6 µM | [3] 19.7 µM | [4] 3.54 µM | [5] 5.32 µM | [6] 7.5 µM | [7] 5.55 µM | [8] 28.5 µM | [9] 7.71 µM | [10] 7.46 µM | [20] 10.1 µM | [12] 20.4 µM | [13] 2.85 µM | [14] 14.5 µM | [15] 3.88 µM | [16] 5.62 µM | [17] 15.9 µM | [18] 10.5 µM | [19] 6.61 µM

CC(C)=NC(C(=O)O)C(C)(C)S (stereo not drawn)
inactive: [1] > 100 µM | [2] > 100 µM | [3] > 100 µM | [4] > 100 µM | [5] > 100 µM | [6] > 100 µM | [7] > 100 µM | [8] > 100 µM | [9] > 100 µM | [10] > 100 µM | [20] > 100 µM | [11] > 100 µM | [12] > 100 µM | [13] > 100 µM | [14] > 100 µM | [15] > 100 µM | [17] > 100 µM | [18] > 100 µM | [19] > 100 µM

CC(C)(C)OC(=O)N1C[C@H](CC(=O)OCc2ccccc2)C[C@H]1C(=O)OCC(Cl)(Cl)Cl
inactive: [1] 4.49 µM | [2] 3.43 µM | [3] 20.2 µM | [4] 2 µM | [5] 2.64 µM | [6] 3.18 µM | [7] 2.68 µM | [8] 8.28 µM | [9] > 50 µM | [10] 4.7 µM | [11] 4.97 µM | [12] 13.6 µM | [13] > 50 µM | [14] 1.79 µM | [15] 8.69 µM | [16] 2.24 µM | [17] 5.89 µM | [18] 6.46 µM | [19] 2.17 µM

CCCCc1ccc(-n2c(C)c(COC(=O)NC)c(COC(=O)NC)c2C)cc1
inactive: [1] 7.28 µM | [2] 12.1 µM | [3] 4.78 µM | [4] 6.03 µM | [5] 5.55 µM | [6] 7.21 µM | [7] 3.56 µM | [8] 4.81 µM | [9] 3.76 µM | [10] 11.1 µM | [11] 4.65 µM | [12] 19.1 µM | [13] 6.98 µM | [14] 2.74 µM | [15] 16.6 µM | [16] 11.4 µM | [17] 10.6 µM | [18] 6.12 µM | [19] 10.9 µM

CN1C(=O)N(c2ccccc2)C2(CCN(CC3COc4ccccc4O3)CC2)C1=O (stereo not drawn)
inactive: [1] 94.4 µM | [2] 19.8 µM | [3] > 100 µM | [4] 99.3 µM | [5] > 100 µM | [6] 87.5 µM | [7] 39.2 µM | [8] > 100 µM | [10] 95.1 µM | [20] > 100 µM | [11] > 100 µM | [12] > 100 µM | [13] > 100 µM | [14] 66.5 µM | [15] > 100 µM | [16] 71.6 µM | [17] 82.2 µM | [18] > 100 µM | [19] > 100 µM

CN(C(=O)C12C3C4(C(=O)O)C1(C(=O)N(C)C(C)(C)C)C1C2(C(=O)O)C3(C(=O)N(C)C(C)(C)C)C14C(=O)N(C)C(C)(C)C)C(C)(C)C (stereo not drawn)
inactive: [1] > 100 µM | [2] > 100 µM | [3] > 100 µM | [4] > 100 µM | [5] > 100 µM | [6] > 100 µM | [7] > 100 µM | [8] > 100 µM | [10] > 100 µM | [20] > 100 µM | [11] > 100 µM | [12] > 100 µM | [13] > 100 µM | [14] > 100 µM | [15] > 100 µM | [16] > 100 µM | [17] > 100 µM | [18] > 100 µM | [19] > 100 µM

COc1ccc(N2C(=O)C3c4[nH]c5c(C)cccc5c4C4CCC(c5ccccc5)CC4C3C2=O)cc1 (stereo not drawn)
inactive: [1] 24.7 µM | [2] 24.8 µM | [3] 15.5 µM | [5] 30.3 µM | [6] 8.63 µM | [8] 6.65 µM | [9] 17.7 µM | [10] 3.21 µM | [20] 13.7 µM | [11] 13.8 µM | [12] 12 µM | [13] 11.7 µM | [14] 15 µM | [15] 12.4 µM | [17] 16.8 µM | [18] 11.9 µM | [19] 12.1 µM

Cc1ccc(S(=O)(=O)N2CC3OC(C)(C)OC3C2CO)cc1 (stereo not drawn)
inactive: [2] > 100 µM | [3] > 100 µM | [4] > 100 µM | [5] > 100 µM | [6] > 100 µM | [8] > 100 µM | [9] > 100 µM | [10] > 100 µM | [20] > 100 µM | [12] > 100 µM | [13] > 100 µM | [14] > 100 µM | [15] > 100 µM | [16] > 100 µM | [17] > 100 µM | [18] > 100 µM | [19] > 100 µM

NC(=O)C(N)CC12CC3CC(CC(C3)C1)C2 (stereo not drawn)
inactive: [1] 25.4 µM | [3] 22.8 µM | [4] 28.9 µM | [5] 25.2 µM | [8] 22.4 µM | [9] 33.3 µM | [10] 28.1 µM | [20] > 10 µM | [11] 16 µM | [12] 20.1 µM | [13] 12.6 µM | [14] 15.5 µM | [15] 19.1 µM | [16] 15.2 µM | [17] 27.9 µM | [18] 19.3 µM | [19] 18.2 µM

CCOC(=O)CNC(=O)C(C)NC(=O)C(NC(=O)OCc1ccccc1)C(C)C (stereo not drawn) (Cbz-Val-Ala-Gly-OEt; configuration not given here)
inactive: [1] > 100 µM | [2] > 100 µM | [3] > 100 µM | [4] 48.1 µM | [5] > 100 µM | [6] > 100 µM | [8] > 100 µM | [9] > 100 µM | [10] > 100 µM | [20] > 100 µM | [12] > 100 µM | [13] > 100 µM | [14] > 100 µM | [15] > 100 µM | [16] > 100 µM | [17] > 100 µM | [18] > 100 µM | [19] > 100 µM

— ChEMBL document CHEMBL1201862, “PubChem BioAssay data set” (2004)
